Results taken from ChEMBL document CHEMBL1201862, “PubChem BioAssay data set” (2004).
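Test compounds were applied to cells in 96-well plates for 48 hours at 5 doses. GI50: concentration for 50% inhibition of growth.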 Active and inactive are the calls of the source. No stated cut-off is given here; in the data, active = GI50 up to about 1.1 µM and inactive = higher.

What was measured:
Assay in all cases: NCI anticancer screen, dose series, 48 h
A498 = test system: A498
ACHN = test system: ACHN
EKVX = test system: EKVX
HOP-92 = test system: HOP-92
IGROV-1 = test system: IGROV-1
K562 = test system: K562
LOX IMVI = test system: LOX IMVI
NCI-H460 = test system: NCI-H460
OVCAR-4 = test system: OVCAR-4
RXF 393 = test system: RXF 393
SF-268 = test system: SF-268
SF-539 = test system: SF-539
SW-620 = test system: SW-620
UACC-62 = test system: UACC-62
UO-31 = test system: UO-31
RPMI-8226 = test system: RPMI-8226

Measured: GI50

COc1cc2c(cc1OCc1ccccc1)CNCC2
inactive: A498 > 100 µM | ACHN > 100 µM | EKVX > 100 µM | HOP-92 23.6 µM | IGROV-1 > 100 µM | K562 > 100 µM | LOX IMVI 91.6 µM | NCI-H460 > 100 µM | OVCAR-4 > 100 µM | RXF 393 > 100 µM | SF-268 > 100 µM | SF-539 > 100 µM | SW-620 24.3 µM | UACC-62 > 100 µM | UO-31 > 100 µM

O=C(Nc1cc(Cl)ccc1Cl)c1cc2cccc(Cl)c2oc1=O
inactive: ACHN > 100 µM | EKVX > 100 µM | IGROV-1 > 100 µM | K562 > 100 µM | LOX IMVI > 100 µM | NCI-H460 > 100 µM | RPMI-8226 > 100 µM | RXF 393 > 100 µM | SF-539 > 100 µM | SW-620 > 100 µM | UACC-62 > 100 µM

NC(=S)N1N=C2CCCCCC[C@@H]2[C@H]1c1ccccc1
inactive: A498 75 µM | ACHN 41.9 µM | EKVX 27.7 µM | IGROV-1 63.2 µM | K562 32.8 µM | LOX IMVI 32.8 µM | NCI-H460 35.2 µM | RPMI-8226 15.1 µM | RXF 393 95.9 µM | SF-268 > 100 µM | SF-539 > 100 µM | SW-620 28.6 µM | UACC-62 44.1 µM | UO-31 16.7 µM

COC(=O)c1nc(-c2ccc(Cl)c(Cl)c2)nc2ccccc12
inactive: A498 27.4 µM | ACHN 50.5 µM | EKVX > 100 µM | IGROV-1 48.9 µM | K562 > 100 µM | LOX IMVI > 100 µM | NCI-H460 > 34 µM | OVCAR-4 7.83 µM | RPMI-8226 > 28.9 µM | RXF 393 13.6 µM | SF-268 6.81 µM | SF-539 24.2 µM | SW-620 > 21 µM | UACC-62 > 27.7 µM | UO-31 43.4 µM

ClC(Cl)=C(Cl)C1(Cl)CC1COCc1ccccc1 (stereo not drawn)
inactive: A498 52.4 µM | ACHN 39.4 µM | EKVX 26.1 µM | HOP-92 15.3 µM | IGROV-1 47.6 µM | K562 30.2 µM | LOX IMVI 23.1 µM | NCI-H460 38.5 µM | OVCAR-4 17.6 µM | RPMI-8226 15.8 µM | RXF 393 18.1 µM | SF-268 43.3 µM | SF-539 51.6 µM | SW-620 30.9 µM | UACC-62 22.5 µM | UO-31 25.8 µM

CCc1cccc(C)c1NC(C)=O
inactive: A498 > 100 µM | ACHN > 100 µM | EKVX > 100 µM | IGROV-1 > 100 µM | K562 > 100 µM | NCI-H460 > 100 µM | OVCAR-4 > 100 µM | RPMI-8226 > 100 µM | RXF 393 > 100 µM | SF-539 > 100 µM | SW-620 > 100 µM | UACC-62 > 100 µM | UO-31 > 100 µM

CC1C(c2ccccc2)N(C)C(c2ccccc2)C(C)C1(O)c1ccccc1 (stereo not drawn)
inactive: A498 42.3 µM | ACHN > 100 µM | EKVX > 100 µM | HOP-92 83.9 µM | IGROV-1 > 100 µM | K562 > 100 µM | LOX IMVI 37.2 µM | NCI-H460 34.4 µM | OVCAR-4 > 100 µM | RXF 393 > 100 µM | SF-268 > 100 µM | SF-539 > 100 µM | SW-620 54 µM | UACC-62 > 100 µM | UO-31 > 100 µM

Cc1cc(Cl)ccc1NC(=O)C1C(=O)N(c2ccc(Cl)cc2C)C(=O)/C1=N\NC(N)=S (stereo not drawn)
inactive: A498 23.6 µM | ACHN 36.2 µM | EKVX 22.6 µM | HOP-92 23.7 µM | K562 23.6 µM | NCI-H460 31.6 µM | OVCAR-4 18.5 µM | RPMI-8226 44.8 µM | RXF 393 16 µM | SF-268 35.6 µM | SF-539 26.1 µM | SW-620 29.7 µM | UACC-62 31.6 µM | UO-31 17 µM
